From US10407409B2, “6-(5-hydroxy-1H-pyrazol-1-yl)nicotinamide inhibitors of PHD” (Takeda Pharmaceutical Company Limited, priority 2013, dated 2019)

Assays:
[1] = target: PHD2 enzyme (residues 181-417) (Homo sapiens (Human), UniProt Q9GZT9); assay: Inhibition of PHD enzyme (LC/MS peptide hydroxylation assay); format: biochemical; settings: PHD2 (residues 181-417) 5 nM, 60 min pre-incubation; -log(IC50), IC50 molar
How it was run: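 Hydroxylated peptide quantified by LC/MS after 60 min turnover of 1 uM biotinylated peptide with 2 uM 2-oxoglutarate and 1 mM ascorbate, stopped by excess tight-binding inhibitor. Beforehand, 5 nM enzyme and compound were preincubated 60 min at RT, pH 7.3 HEPES/KCl/TCEP/FeCl2/BSA buffer. Values as pIC50 (−log molar IC50).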

[2] = test system: HIF1a protein in H9c2 rat cardiomyocytes; assay: Cell-based HIF-alpha stabilization assay (inhibition of PHD in cells); settings: 24 hrs compound incubation, HIF1a protein by ELISA; for EC50: Rattus norvegicus, H9c2, 24 h, read-out: Inhibition of PHD in cells (pEC50) (converted)
How it was run: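 HIF1a stabilization was measured by ELISA on lysates of H9c2 rat cardiomyocytes after 24 h exposure to 11 serial compound concentrations, expressed relative to the desferrioxamine maximum. Curve fits gave EC50. EC50pos denotes the concentration producing half the desferrioxamine maximal response.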

Chain of PHD2 enzyme (residues 181-417) (Q9GZT9 181-417): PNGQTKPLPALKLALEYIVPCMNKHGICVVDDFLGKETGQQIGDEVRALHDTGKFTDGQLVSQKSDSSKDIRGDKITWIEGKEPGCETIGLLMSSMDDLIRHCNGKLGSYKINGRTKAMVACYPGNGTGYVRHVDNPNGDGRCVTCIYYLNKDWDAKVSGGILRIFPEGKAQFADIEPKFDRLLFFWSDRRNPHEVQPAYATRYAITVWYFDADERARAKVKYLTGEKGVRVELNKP

SMILES	PHD Inhibition (pIC50) [1]	EC50 [2] [µM]	Inhibition of PHD in cells (pEC50) [2]
N#Cc1ccc(-c2cnn(-c3ccc(C(=O)NCC4CC(F)(F)C4)cn3)c2O)cc1 [Example 264, 6-(4-(4-cyanophenyl)-5-hydroxy-1H-pyrazol-1-yl)-N-((3,3-difluorocyclobutyl)methyl)nicotinamide]	6.99	1.62	
N#Cc1ccc(-c2cnn(-c3ccc(C(=O)NC4CC(F)(F)C4)cn3)c2O)cc1 [Example 265, 6-(4-(4-cyanophenyl)-5-hydroxy-1H-pyrazol-1-yl)-N-(3,3-difluorocyclobutyl)nicotinamide]	6.77	6.61	
CCNC(=O)c1ccc(-n2ncc(-c3ccc(C#N)cc3)c2O)nc1 [Example 266, 6-(4-(4-cyanophenyl)-5-hydroxy-1H-pyrazol-1-yl)-N-ethylnicotinamide]	7.23	1.91	
CCCNC(=O)c1ccc(-n2ncc(-c3ccc(C#N)cc3)c2O)nc1 [Example 267, 6-(4-(4-cyanophenyl)-5-hydroxy-1H-pyrazol-1-yl)-N-propylnicotinamide]	7.36	0.708	
CN(C)CCNC(=O)c1ccc(-n2ncc(-c3ccc(C#N)cc3)c2O)nc1 [Example 268, 6-(4-(4-cyanophenyl)-5-hydroxy-1H-pyrazol-1-yl)-N-(2-(dimethylamino)ethyl)nicotinamide]	6.32	1.95	
CN(C)CCCNC(=O)c1ccc(-n2ncc(-c3ccc(C#N)cc3)c2O)nc1 [Example 269, 6-(4-(4-cyanophenyl)-5-hydroxy-1H-pyrazol-1-yl)-N-(3-(dimethylamino)propyl)nicotinamide]	6.82	1.95	
CN1CCC(NC(=O)c2ccc(-n3ncc(-c4ccc(C#N)cc4)c3O)nc2)CC1 [Example 270, 6-(4-(4-cyanophenyl)-5-hydroxy-1H-pyrazol-1-yl)-N-(1-methylpiperidin-4-yl)nicotinamide]	7.34	1	
CN1CCC(CNC(=O)c2ccc(-n3ncc(-c4ccc(C#N)cc4)c3O)nc2)CC1 [Example 271, 6-(4-(4-cyanophenyl)-5-hydroxy-1H-pyrazol-1-yl)-N-((1-methylpiperidin-4-yl)methyl)nicotinamide]	6.98	1.55	
CNC(=O)c1cnc(-n2ncc(-c3ccc(C#N)cc3)c2O)cc1C [Example 273, 6-(4-(4-cyanophenyl)-5-hydroxy-1H-pyrazol-1-yl)-N,4-dimethylnicotinamide]	7.06	9.33	
CCNC(=O)c1cnc(-n2ncc(-c3ccc(C#N)cc3)c2O)cc1C [Example 274, 6-(4-(4-cyanophenyl)-5-hydroxy-1H-pyrazol-1-yl)-N-ethyl-4-methylnicotinamide]	7.03	6.46	
Cc1cc(-n2ncc(-c3ccc(C#N)cc3)c2O)ncc1C(=O)NC1CC1 [Example 275, 6-(4-(4-cyanophenyl)-5-hydroxy-1H-pyrazol-1-yl)-N-cyclopropyl-4-methylnicotinamide]	7.03	3.8	
Cc1cc(-n2ncc(-c3ccc(C#N)cc3)c2O)ncc1C(=O)N[C@H]1CCOC1 [Example 277, (S)-6-(4-(4-cyanophenyl)-5-hydroxy-1H-pyrazol-1-yl)-4-methyl-N-(tetrahydrofuran-3-yl)nicotinamide]	6.89	7.08	
Cc1cc(-n2ncc(-c3ccc(C#N)cc3)c2O)ncc1C(=O)N[C@H]1CC[C@@H](O)CC1 [Example 278, 6-(4-(4-cyanophenyl)-5-hydroxy-1H-pyrazol-1-yl)-N-((1s,4s)-4-hydroxycyclohexyl)-4-methylnicotinamide]	7.05	3.24	
Cc1cc(-n2ncc(-c3ccc(C#N)cc3)c2O)ncc1C(=O)NCCC1CCCOC1 (stereo not drawn) [Example 279, 6-(4-(4-cyanophenyl)-5-hydroxy-1H-pyrazol-1-yl)-4-methyl-N-(2-(tetrahydro-2H-pyran-3-yl)ethyl)nicotinamide]	7.1	2.63	
O=C(NCc1ccccc1)c1ccc(-n2ncc(-c3ccccn3)c2O)cc1 [Example 280, N-benzyl-4-(5-hydroxy-4-(pyridin-2-yl)-1H-pyrazol-1-yl)benzamide]	5.69	50.1	
N#Cc1ccc(-c2cnn(-c3ccc(C(=O)NCc4ccccc4)cn3)c2O)cc1 [Example 281, N-benzyl-6-(4-(4-cyanophenyl)-5-hydroxy-1H-pyrazol-1-yl)nicotinamide]	7.37	0.257	
CCCN1CCN(C(=O)c2ccc(-n3ncc(-c4ccc(C#N)cc4C)c3O)nc2)CC1 [Example 283, 4-(5-hydroxy-1-(5-(4-propylpiperazine-1-carbonyl)pyridin-2-yl)-1H-pyrazol-4-yl)-3-methylbenzonitrile]	8.60		5.72
CO[C@H]1CC[C@@H](NC(=O)c2ccc(-n3ncc(-c4ccc(C#N)cc4F)c3O)nc2)CC1 [Example 284, 6-(4-(4-cyano-2-fluorophenyl)-5-hydroxy-1H-pyrazol-1-yl)-N-((1 s,4s)-4-methoxycyclohexyl)nicotinamide]	8.21	1.29	
COCCCCNC(=O)c1ccc(-n2ncc(-c3ccc(C#N)cc3F)c2O)nc1 [Example 285, 6-(4-(4-cyano-2-fluorophenyl)-5-hydroxy-1H-pyrazol-1-yl)-N-(4-methoxybutyl)nicotinamide]	8.48	0.933	
Cc1cc(C#N)ccc1-c1cnn(-c2ccc(C(=O)N(C)CCN(C)C)cn2)c1O [Example 286, 6-(4-(4-cyano-2-methylphenyl)-5-hydroxy-1H-pyrazol-1-yl)-N-(2-(dimethylamino)ethyl)-N-methylnicotinamide]	7.94	0.603	
Cc1cc(C#N)ccc1-c1cnn(-c2ccc(C(=O)N3CCCN(C)CC3)cn2)c1O [Example 287, 4-(5-hydroxy-1-(5-(4-methyl-1,4-diazepane-1-carbonyl)pyridin-2-yl)-1H-pyrazol-4-yl)-3-methylbenzonitrile]	8.10	3.55	
Cc1cc(C#N)ccc1-c1cnn(-c2ccc(C(=O)N(C)C3CCN(C)CC3)cn2)c1O [Example 289, 6-(4-(4-cyano-2-methylphenyl)-5-hydroxy-1H-pyrazol-1-yl)-N-methyl-N-(1-methylpiperidin-4-yl)nicotinamide]	8.03	1.23	
Cc1cc(C#N)ccc1-c1cnn(-c2ccc(C(=O)N3CCN(C)CC3)cn2)c1O [Example 290, 4-(5-hydroxy-1-(5-(4-methylpiperazine-1-carbonyl)pyridin-2-yl)-1H-pyrazol-4-yl)-3-methylbenzonitrile]	8.33	0.912	
Cc1cc(C#N)ccc1-c1cnn(-c2ccc(C(=O)N3CCN(C(C)(C)C)CC3)cn2)c1O [Example 291, 4-(1-(5-(4-(tert-butyl)piperazine-1-carbonyl)pyridin-2-yl)-5-hydroxy-1H-pyrazol-4-yl)-3-methylbenzonitrile]	8.15	0.977	
Cc1cc(C#N)ccc1-c1cnn(-c2ccc(C(=O)N3C[C@H]4CN(C)C[C@H]4C3)cn2)c1O [Example 292, 4-(5-hydroxy-1-(5-((3aR,6aS)-5-methyloctahydropyrrolo[3,4-c]pyrrole-2-carbonyl)pyridin-2-yl)-1H-pyrazol-4-yl)-3-methylbenzonitrile]	8.04	0.407	
Cc1cc(C#N)ccc1-c1cnn(-c2ccc(C(=O)N3CCC4(CN(C)C4)C3)cn2)c1O [Example 293, 4-(5-hydroxy-1-(5-(2-methyl-2,6-diazaspiro[3.4]octane-6-carbonyl)pyridin-2-yl)-1H-pyrazol-4-yl)-3-methylbenzonitrile]	8.05	0.324	
CCCN1CCC(N(C)C(=O)c2ccc(-n3ncc(-c4ccc(C#N)cc4C)c3O)nc2)CC1 [Example 294, 6-(4-(4-cyano-2-methylphenyl)-5-hydroxy-1H-pyrazol-1-yl)-N-methyl-N-(1-propylpiperidin-4-yl)nicotinamide]	8.22	1.12	
Cc1cc(C#N)ccc1-c1cnn(-c2ccc(C(=O)N(C)C3CCN(C4CC4)CC3)cn2)c1O [Example 296, 6-(4-(4-cyano-2-methylphenyl)-5-hydroxy-1H-pyrazol-1-yl)-N-(1-cyclopropylpiperidin-4-yl)-N-methylnicotinamide]	8.23	1	
Cc1cc(C#N)ccc1-c1cnn(-c2ccc(C(=O)N3CC(N(C)C4CCC4)C3)cn2)c1O [Example 297, 4-(1-(5-(3-(cyclobutyl(methyl)amino)azetidine-1-carbonyl)pyridin-2-yl)-5-hydroxy-1H-pyrazol-4-yl)-3-methylbenzonitrile]	8.39	0.525	
Cc1cc(C#N)ccc1-c1cnn(-c2ccc(C(=O)N3CC(N(C)C4CC4)C3)cn2)c1O [Example 298, 4-(1-(5-(3-(cyclopropyl(methyl)amino)azetidine-1-carbonyl)pyridin-2-yl)-5-hydroxy-1H-pyrazol-4-yl)-3-methylbenzonitrile]	8.18	0.977	
